Measured values published in patent publication US4728729A, “Cyanoimidazole nucleoside derivatives” (Sumitomo Pharmaceuticals Co., Ltd., priority 1984, dated 1988).
One block for each compound: values may come before it.

Assays:
[1] = J. of Antibiotics, vol. 27 p. 775 (1974); Canada Pat. No. 1,078,736; cited from earlier work
[2] = system: anti-SRBC PFC response; test: Immunosuppressive activity: anti-SRBC PFC response in vivo (Cunningham method); set-up: species or system mouse; conditions: for Suppression / PFC × 10^-3 / spleen: day 0 to 3; for Suppression: PFC measured day 4; for PFC × 10^-3 / spleen: measured day 4, AV. ± SD., n = 4, control 363 ± 51
Experimental: The immunosuppressive activity of the compound of the present invention was assayed in comparison with mizoribine which has been used in immunosuppressive therapy. After a sheep red blood cell preparation (SRBC) was injected in mice, the compounds were administered orally once a day on day 0 to 3 and the plaque forming cell (PFC) number was measured on day 4 by Cunningham method. [Cunningham A. J. et al. Immunol. 14, 599(1968)].

[3] = system: KU-2 (renal cell carcinoma); test: In vitro growth inhibition assay, KU-2; assay type: cell-based; conditions: Homo sapiens; KU-2, monolayer culture, 72 to 120 hr
Experimental: (§1) In vitro growth inhibition activities were determined according to the method described in "Cancer Research", Vol. 43, p. 5851-5856 (1983).
(§2) In the case of monolayer culture (solid tumor cell lines), cells were cultured for 24 hr without the compound in order to allow cells to attach on the culture plate. Then the culture medium was changed to a fresh medium containing various concentrations of the compound. Cells were further cultured for 72 hr to 120 hr, and then removed from the culture plate by 0.125% trypsin and 0.05% EDTA solution.
(§3) Cell numbers were counted with a Coulter Counter and IC50 s were calculated.

[4] = system: P3HR1 (Burkitt lymphoma); test: In vitro growth inhibition assay, P3HR1; assay type: cell-based; conditions: Homo sapiens, P3HR-1; P3HR1, suspension culture, 72 hr
Experimental: as §1
(§4) In the case of suspension culture (lymphoma and leukemia cell lines), cells were cultured with various concentrations of the compound for 72 hr.
as §3

[5] = system: CCRF-HSB-2 (acute lymphoblastic leukemia); test: In vitro growth inhibition assay, CCRF-HSB-2; assay type: cell-based; conditions: Homo sapiens; CCRF-HSB-2, suspension culture, 72 hr
Experimental: as §1, §4, §3

[6] = system: SCaBER (bladder squamous carcinoma); test: In vitro growth inhibition assay, SCaBER; assay type: cell-based; conditions: Homo sapiens, monolayer culture, 72 to 120 hr
Experimental: as §1, §2, §3

[7] = system: DU 145 (prostate cancer); test: In vitro growth inhibition assay, DU 145; assay type: cell-based; conditions: Homo sapiens; DU 145, monolayer culture, 72 to 120 hr
Experimental: as §1, §2, §3

[8] = system: QG-90 (lung small cell carcinoma); test: In vitro growth inhibition assay, QG-90; assay type: cell-based; conditions: Homo sapiens; QG-90, monolayer culture, 72 to 120 hr
Experimental: as §1, §2, §3

[9] = system: solid Ehrlich carcinoma; test: Antitumor effect on solid Ehrlich carcinoma; assay type: in vivo, mouse (ICR/Jcl); conditions: Days 1,5,9, tumors weighed day 15
Experimental: The antitumor activities of the compounds of the present invention were estimated according to the method described in "Cancer Research" vol. 43, p. 5851 (1983).
ICR/Jcl male mice, 5 weks old, […], […]. Each test group was composed of 6 mice. Three million cells of Ehrlich carcinoma were injected in the hind leg. The drug was administered orally at days 1, 5, and 9. After sacrificing the mice at day 15, tumors were removed and weighed. The tumor growth inhibitory ratio was calculated according to the following formula. [formula]

[10] = system: Hela (uterine cervix cancer); test: In vitro growth inhibition assay, Hela; assay type: cell-based; conditions: Homo sapiens, monolayer culture, 72 to 120 hr
Experimental: as §1, §2, §3

[11] = system: various types of human tumor cell lines; test: In vitro growth inhibition on various human tumor cell lines (summary); assay type: cell-based
Experimental: as §1, §4, §2, §3

[12] = system: HL-60 (promyelocytic leukemia); test: In vitro growth inhibition assay, HL-60; assay type: cell-based; conditions: Homo sapiens; HL-60, suspension culture, 72 hr
Experimental: as §1, §4, §3

[13] = system: QG-56 (lung squamous carcinoma); test: In vitro growth inhibition assay, QG-56; assay type: cell-based; conditions: Homo sapiens; QG-56, monolayer culture, 72 to 120 hr
Experimental: as §1, §2, §3

[14] = system: A549 (lung cancer); test: In vitro growth inhibition assay, A549; assay type: cell-based; conditions: Homo sapiens; A549, monolayer culture, 72 to 120 hr
Experimental: as §1, §2, §3

Structure (SMILES): NC(=O)c1nc[nH]c1O [4-carbamoylimidazolium-5-olate]
immunosuppressive and antitumor activities, in words [1]: immunosuppressive and antitumor activities

Structure (SMILES): NC(=O)c1ncn([C@@H]2O[C@H](CO)[C@@H](O)[C@H]2O)c1O [Mizoribine, 4-carbamoyl-1-β-D-ribofuranosylimidazolium-5-olate, reference compound]
immunosuppressive and antitumor activities, in words [1]: immunosuppressive and antitumor activities | Suppression ([2]; 5 mg/day p.o.): 0% | PFC × 10^-3 / spleen ([2]; 5 mg/day p.o.): 496 ± 140 PFC × 10^-3 / spleen | Suppression ([2]; 25 mg/day p.o.): 69% | PFC × 10^-3 / spleen ([2]; 25 mg/day p.o.): 113 ± 53 PFC × 10^-3 / spleen | Suppression ([2]; 50 mg/day p.o.): 89% | PFC × 10^-3 / spleen ([2]; 50 mg/day p.o.): 39 ± 43 PFC × 10^-3 / spleen

IC50 [3]: 1 µM | IC50 [4]: 4.6 µM | IC50 [5]: < 3 µM | IC50 [6]: 5 µM | IC50 [7]: 4.4 µM | IC50 [8]: 6.7 µM | IC50 [10]: 4.7 µM | IC50 [12]: 0.87 µM | IC50 [13]: 2.8 µM | IC50 [14]: 8.5 µM
Structure (SMILES): N#Cc1ncn([C@@H]2O[C@H](CO)[C@@H](O)[C@H]2O)c1O [4-cyano-1-β-D-ribofuranosylimidazolium-5-olate]
Inhibition ratio (tumor growth) ([9]; 10 mg/kg/day po): 40.1% | Inhibition ratio (tumor growth) ([9]; 20 mg/kg/day po): 73.6% | Inhibition ratio (tumor growth) ([9]; 40 mg/kg/day po): 99.8% | Inhibition ratio (tumor growth) ([9]; 80 mg/kg/day po): 99.8% | growth inhibitory activities on human tumor cell lines, in words [11]: potent growth inhibitory activities | Suppression ([2]; 5 mg/day p.o.): 0% | PFC × 10^-3 / spleen ([2]; 5 mg/day p.o.): 362 ± 123 PFC × 10^-3 / spleen | Suppression ([2]; 25 mg/day p.o.): 99% | PFC × 10^-3 / spleen ([2]; 25 mg/day p.o.): 4 ± 1 PFC × 10^-3 / spleen | Suppression ([2]; 50 mg/day p.o.): 100% | PFC × 10^-3 / spleen ([2]; 50 mg/day p.o.): 0 PFC × 10^-3 / spleen | immunosuppressive activity compared with mizoribine, in words ([2]; oral): more active than mizoribine | immunosuppressive activity in oral administration, in words ([2]; oral): potent activity in oral administration
